Article PMC6040060, “Identification of a new alanine racemase in Salmonella Enteritidis and its contribution to pathogenesis” (Gut Pathogens, 2018)
Read-outs that look alike come from different tables or passages of the source.

Experiments:
SEN3897 [1] = test system: T1, SEN3897; settings: read-out: D → L / Km; D to L direction; 10 μM PLP, 2.5 mM NAD+, Tris-HCl pH 8.0, 37 °C
T1 construct: gene alr

DadX [2] = test system: T2, DadX; assay: coupled spectrophotometric assay, NADH at […] nm (L-alanine dehydrogenase); assay type: biochemical, Salmonella enterica subsp. enterica serovar Enteritidis; settings: D to L direction; 10 μM PLP, 2.5 mM NAD+, Tris-HCl pH 8.0, 37 °C
T2 construct: pET28a-dadX (NheI/XhoI), N-terminal 6xHis tag, E. coli BL21(DE3) Codon Plus, Ni-NTA purified

DadX [3] = test system: T2, DadX; assay: coupled spectrophotometric assay, NADH at […] nm (D-amino acid aminotransferase / L-lactate dehydrogenase); assay type: biochemical, Salmonella enterica subsp. enterica serovar Enteritidis; settings: L to D direction; 10 μM PLP, Tris-HCl pH 8.0, 37 °C
SEN3897 [4] = test system: T1, SEN3897; settings: read-out: L → D / Km; L to D direction; 10 μM PLP, Tris-HCl pH 8.0, 37 °C

SMILES	Km (SEN3897 [1])	Km (DadX [2])	Km (DadX [3])	Km (SEN3897 [4])
C[C@@H](N)C(=O)O [D-alanine]	35 ± 6 mM	52.8 ± 3 mM	–	–
C[C@H](N)C(=O)O [L-alanine]	–	–	58.9 ± 2.7 mM	89.1 ± 10.2 mM
